Consider three compounds from patent US11647737B2, “Genetically modified rabbit expressing an exogenous protein in milk” (APPLIED STEMCELL, INC., priority 2016, dated 2023).

The test system of data set [1] is ROSA26 like locus (RLL) in rabbit embryos. To be noted: for knock-in rate: 20 h, control 4.8%.
Method: We first tested the effects of SCR7 and RS-1 on Cas9 mediated HDR at a ROSA26 like locus (RLL) in the rabbit genome (FIG. 6). Donor template DNAs were co-microinjected with Cas9 mRNA and sgRNA for RLL locus. After injection, the embryos were treated for 20 h in a serial concentration of SCR7: 0 μM (control), 20 μM, 40 μM, and 80 μM, or in RS-1 at 0 μM (control), 7.5 μM, and 15 μM.
In another data set the test system is β-casein (rbCSN2). In words: In vitro validation of sgRNAs in microinjected rabbit embryos (PCR and sequencing of blastocysts), β-casein. Type of data set: cell-based. The following applies: 100 ng/μl Cas9 mRNA and 6 ng/μl sgRNA. The procedure: All animal maintenance, care and use procedures were reviewed and approved by the University Committee on the Use and Care of Animals (UCUCA) of the University of Michigan. Embryos were harvested from superovulated embryo donor female rabbits as previously described. Microinjection was performed on embryos 19-21 h post insemination using a micromanipulator under the inverted microscope equipped with a differential interference contrast (DIC) device. A mixture containing 100 ng/μl Cas9 mRNA and 6 ng/μl sgRNA were used for cytoplasmic microinjection. The injected embryos were washed and cultured in vitro for 3-4 days until they reached blastocyst stage.
Blastocyst stage embryos were lysed individually and genomic DNA extracted. To get better PCR reaction, the whole genome was replicated using a REPLI-g® Mini Kit (Qiagen, Germantown, Md.) following the manufacturer's protocol with slight modification. PCR products using primer set LF1/RR1 were purified and sequenced for detection of indel mutations proximate to the sgRNA target sequence (FIG. 4). On the chromatographic curves, peaks on peaks approximate the targeting site indicate an indel event. Mutation Surveyor (Softgenetics, State College, Pa.) was used to analyze sequencing results.
In total, we performed microinjection to 102 pronuclear stage embryos with sgRNA#3 targeting β-casein (rbCSN2) (see Table 1). […]

In data set [2] the test system is beta-casein locus in rabbit embryos. In words: td-Tomato knock-in efficiency at the beta-casein locus in rabbit embryos. To be noted: RS-1 7.5 μM; control 8.3%; P<0.05. Format: cell-based. As to the method: A mixture containing 100 ng/μl donor DNA, 100 ng/μl Cas9 mRNA and 6 ng/μl sgRNA were used for cytoplasm microinjection. Embryos were subsequently cultured to blastocyst stages, genomic DNA extracted, and subjected to PCR using primer sets described in FIG. 4. Embryos that are positive containing the desired band size for both primer sets LF1/LR1 and RF1/RR1 are considered putative knock-in.

Where two headings read alike, the source gives them in different places.

On to `O=c1[nH]c(=S)[nH]c(N=Cc2ccccc2)c1N=Cc1ccccc1` [SCR7], for which the overall knock-in efficiency in data set [1] (embryos treated 20 h with SCR7 20 μM, 40 μM, 80 μM, control 7.1%) is 7.7-9.4%. Also, the “effect on overall knock-in efficiency” value in data set [1] (embryos treated 20 h with SCR7 20-80 μM vs control) is recorded as “no significant effects”.

Consider “sgRNA#3: sgRNA targeting rabbit β-Casein intron 1, GGATATCATGTTAGAGTGCCTGG (SEQ ID NO: 1) (listed as DNA, chemistry not given here; the letters are possibly those of the target site)”, for which, in the data set with β-casein (rbCSN2), the “Bi-allelic mutations (%)” value stood at 36%. Also, the “blastocysts with insertions or deletions at or proximate the targeted cleavage site (#mutated, %)” value in the data set with β-casein (rbCSN2) (56 blastocysts sequenced) is 63%.

In the case of `O=C(Nc1ccc(Br)cc1)c1ccc(Br)c(S(=O)(=O)NCc2ccccc2)c1` [RS-1], the values for the knock-in rate in data set [1] (RS-1 7.5 μM) and in data set [1] (RS-1 15 μM) were 26.1% and 5.4%, respectively. In data set [2], the “% KI (knock-in rate)” value stood at 28.9%.
